Data from paper PMC5464773 (eLife, 2017).
Peptide text beside a SMILES is read from it. * marks the point of attachment. Acryloyl = C=CC(=O)*

Experiments:
Assay in all cases: BH3 profiling, mitochondrial depolarization (JC-1) in permeabilized cells
Assay type in all cases: cell-based
[1] = tested on: BCR-ABL-expressing B-lineage acute lymphoblastic leukemia cells dependent on Mcl-1; settings: BH3 profiling fits Mcl-1, sigmoidal dose-response (variable slope)
Procedure: (§1) Cell line identities were confirmed by STR profiling.
(§2) Peptides were titrated by serial dilution in MEB buffer (150 mM Mannitol, 10 mM HEPES-KOH pH 7.5, 50 mM KCl, 0.02 mM EGTA, 0.02 mM EDTA, 0.1% BSA and 5 mM Succinate) containing 20 μg/mL oligomycin, 50 μg/mL digitonin, 2 μM JC-1 and 10 mM 2-mercaptoethanol in 384-well plates. Controls for no depolarization (1% DMSO) and complete depolarization with the mitochondrial oxidative phosphorylation uncoupler FCCP (20 μM) were included for data normalization. […] 15 μL of cell suspension was added to each well containing 15 μL of treatment solution. […] To produce percent depolarization, the area under the resultant curve was calculated and normalized to the assay controls. Peptide titration curves were fit to sigmoidal dose-response curves using Graphpad PRISM seven to obtain EC50 values.

[2] = tested on: BCR-ABL-expressing B-lineage acute lymphoblastic leukemia cells dependent on Bcl-xL; settings: BH3 profiling fits Bcl-xL, sigmoidal dose-response (variable slope), fit ambiguous
Procedure: as §1, §2

[3] = tested on: BCR-ABL-expressing B-lineage acute lymphoblastic leukemia cells dependent on Bfl-1; parameters: key to Bottom (best-fit value) / Top (best-fit value): % depolarization, normalized to DMSO (0) and FCCP (100) controls; settings: BH3 profiling fits Bfl-1, sigmoidal dose-response (variable slope)
Procedure: as §1, §2

C=CC(=O)N[C@@H](Cc1c[nH]c2ccccc12)C(=O)N[C@H](C(=O)N[C@@H](CCCNC(=N)N)C(=O)N[C@@H](CCC(=O)O)C(=O)N[C@H](C(=O)N[C@@H](C)C(=O)N[C@@H](C)C(=O)NCC(=O)N[C@@H](CC(C)C)C(=O)N[C@@H](CCCNC(=N)N)C(=O)N[C@@H](CCCNC(=N)N)C(=O)N[C@@H](C)C(=O)N[C@@H](C)C(=O)N[C@@H](CC(=O)O)C(=O)N[C@@H](CC(=O)O)C(=O)N[C@H](C(=O)N[C@@H](CC(N)=O)C(=O)N[C@@H](C)C(=O)N[C@@H](CCC(N)=O)C(=O)N[C@H](C(=O)N[C@@H](CCC(=O)O)C(=O)N[C@@H](CCCNC(=N)N)C(N)=O)C(C)C)C(C)C)[C@@H](C)CC)C(C)C [FS2gX] (Acryloyl-WVREIAAGLRRAADDVNAQVER-NH2)
HillSlope (best-fit value) [1]: 0.1762 | Bottom (best-fit value) ([1]; constrained (0 < Bottom < 5 or Bottom < 5)): -6.58 | Top (best-fit value) ([1]; constrained (Top < 100 or Top > 78)): ~ 78 | Bottom (best-fit value) ([2]; constraint Bottom < 5): ~ -1647 | Top (best-fit value) ([2]; constraint Top > 78): ~ 78 | HillSlope (best-fit value) [2]: ~ -0.02698 | HillSlope (best-fit value) [3]: 0.7987 | Bottom (best-fit value) ([3]; constraint Bottom < 5): -3.828 | Top (best-fit value) ([3]; constraint Top > 78): 78.27 | LogEC50 (best-fit value) ([3]; x = Log [Peptide] M, 55-56 Y values analyzed): -8.01
